# Data published in patent publication US11150255B2, “Additive channels” (Emulate Inc., priority 2016, dated 2021).
# Entries after “also recorded” stand apart in the source; their conditions may differ. Positions of bridges follow the written chain, without caps; N, C: chain ends. Non-standard residues stand in square brackets, D forms with d. Residues, ends and D or L forms follow the SMILES beside them. hArg = N=C(N)NCCCC[C@H](N)C(=O)O; Mpa = O=C(O)CCS
# Tests used:
# [1] = tested on: platelets in human whole blood over HUVEC endothelium; experiment: Vessel-On-Chip blood perfusion, platelet coverage by fluorescence imaging; format: cell-based; details: for platelet aggregation / platelet coverage: TNF-α 50 ng/ml 6 hours endothelial pre-treatment or sCollagen 10 μg/ml in blood, vs blood alone; for platelet aggregate formation / platelet coverage: hu5C8 240 μg/ml, sCD40L 10 ng/ml, untreated endothelium, 60 μl/minute, vs untreated blood
# Protocol: (§1) Briefly, human blood was drawn in citrate buffer and used within 4 hours. Platelets were stained using fluorescently labeled non-blocking antibodies for the platelet surface marker CD41 and low dosages of fluorescent fibrinogen were added in order to visualize fibrin deposition. Blood was re-calcified in order to re-establish the full coagulation potential, then introduced in the biomimetic vessel-on-chip from the main inlet (embodiments of inlets shown in FIG. 18A-1, FIG. 18A-2 and FIG. 19C). The outlet of the chip was connected to a pulling syringe pump with a system of tubing and connectors made of medical grade silicon that excludes any metal components or potential causes of platelet activation (FIG. 5A).
# (§2) After 14 minutes of perfusion, the flow was interrupted and the chips were immediately imaged via fluorescence microscopy (FIG. 18C and FIG. 19D). In healthy conditions, endothelial cells will provide an antithrombotic surface where blood can flow smoothly, and indeed we detected minimal platelet adhesion or fibrin deposition in our vessel-on-chip after blood perfusion in control conditions, FIG. 18C, Blood.
# Platelets were labeled with human CD41-PE antibody (10 μL/ml, Invitrogen) directly added to the blood and incubated at room temperature for 5 minutes.
# A medical grade plastic reservoir was mounted on the chip, then 800 μl of the blood sample was pipetted into the reservoir. The chip was perfused with the blood by withdrawing it at a rate of 60 μl/minute using a syringe pump. The citrated blood was re-calcified 2 minutes after the beginning of each experiment by adding 100 μl/ml of a solution containing 100 mM calcium chloride and 75 mM magnesium chloride to the blood to permit calcium- and magnesium-dependent platelet function and coagulation.
# (§3) Chips perfused with blood samples were immediately imaged via fluorescence microscopy (Olympus IX83, 10× objective UPLFLN10×2, Orca-Flash4.0 CMOS Camera). Each chamber was inspected along its entire length and S images (about 0.25 cm) were captured from the central area of the chamber. Image processing and quantification was performed with an automatic macro compiled in ImageJ and numerical values corresponding to platelet coverage or fibrin florescence were collected and statistically analyzed in Graphpad Prism V7.
# (§4) A percentage of signal coverage (or Platelet coverage) was computed from the binary image as the ratio of bright pixels to the total number of pixels in the image. Image processing and quantification was performed with an automatic macro compiled in ImageJ in order to ensure unbiased signal measurements. Numerical values corresponding to platelet coverage or fibrin fluorescence (signal intensity) were collected and statistically analyzed in Graphpad Prism V7.
# [2] = tested on: thrombin anti-thrombin complex (TAT); experiment: Thrombin anti-thrombin (TAT) ELISA in chip effluent plasma; format: cell-based, human; details: TNF-α endothelial pre-treatment or sCollagen in blood; outflow samples
# Protocol: Thrombin converts fibrinogen into fibrin during clot formation, and anti-thrombin plays a role in maintaining homeostasis by inhibiting the effect of thrombin. Formation of TAT in the microdevice confirms that local and intrinsic generation of thrombin, a potent platelet agonist, occurs in the model and that counter regulatory mechanisms for coagulation are retained. Thus, blood sampled from the Vessel-On-Chip was analyzed for thrombin anti-thrombin complex (TAT), an accepted clinical biomarker for procoagulation^48,49. […] An enzyme-linked immunosorbant assay (ELISA) was used to quantify the thrombin anti-thrombin complex (TAT).
# Thrombin Anti-Thrombin (TAT) levels were analyzed in plasma from blood flowing out of the chip device by removing a sample from the outflow port. Thus TAT levels were evaluated in sample effluents collected from the outflow port of the chip using the Human TAT ELISA Kit (Siemens Healthineers) according to the user manual.
# Blood sampled from the Vessel-On-Chip outflow port was analyzed for thrombin anti-thrombin complex (TAT), a factor released upon activation of the coagulation cascade and one of the biomarkers associated with thrombotic events occurring in patients affected with deep vein thrombosis (DVT) or SLE^45,46. […] An enzyme-linked immunosorbant assay (ELISA) was used to quantify the thrombin anti-thrombin complex (TAT).
# [3] = tested on: fibrin deposition on the endothelium; experiment: Vessel-On-Chip blood perfusion, fibrin deposition by fluorescent fibrinogen imaging; format: cell-based, human; details: for fibrin deposition / fibrin signal intensity: TNF-α 50 ng/ml 6 hours endothelial pre-treatment or sCollagen 10 μg/ml in blood, vs blood alone; for fibrin deposition / fibrin clot formation: hu5C8 240 μg/ml, sCD40L 10 ng/ml, untreated endothelium, 60 μl/minute, vs untreated blood
# Protocol: as §1, §2
# When analyzing the formation of fibrin, […] of fluorescently labeled fibrinogen (Alexa 488, Invitrogen) was also added to the blood. While fluorescent fibrinogen was barely detected as a diffused fluorescence, fibrin deposition on inflamed cells and sparse clots was easily distinguished since fibrin formed filamentous structures produce a signal intensity that is clearly observed above a background threshold.
# as §3, §4
# [4] = tested on: FcγRIIa; experiment: Vessel-On-Chip thrombosis, all endpoints (platelet coverage, fibrin deposition, TAT); format: cell-based, human; details: for hu5C8-mediated thrombosis on-chip (platelet coverage, fibrin deposition, TAT): with sCD40L 10 ng/ml, IV.3 1 μg/ml pre-incubation or IgG2σ variant in place of hu5C8
# [5] = tested on: patients; details: hu5C8: lupus nephritis study; IDEC-131: Crohn's disease trial; cited from earlier work
# [6] = Eptifibatide 2 ug/ml, endothelium inflamed with TNF-α, n=4
compound,measurement,setting,value
TNF-α,platelet aggregation / platelet coverage,[1],increased; also recorded: high number of larger aggregates
same,levels of TAT,[2],significantly increased; also recorded: elevated levels
same,fibrin deposition / fibrin signal intensity,[3],increased
hu5C8 (IgG2σ): IgG2σ variant of hu5C8 with an engineered Fc region that eliminates affinity for the FcγRIIa,"hu5C8-mediated thrombosis on-chip (platelet coverage, fibrin deposition, TAT)",[4],did not show signs of thrombosis
same,"hu5C8-mediated thrombosis on-chip (platelet coverage, fibrin deposition, TAT)",[4]; listed as IgG2σ,suppressed
same,"hu5C8-mediated thrombosis on-chip (platelet coverage, fibrin deposition, TAT)",[4]; listed as hu5C8-IgG2σ,not detected
sCD40L: Recombinant human sCD40 Ligand,platelet aggregate formation / platelet coverage,[1],no significant treatment-related effects; also recorded: not statistically significant
same,"increase in platelet coverage in some donors, fold over untreated control",[1]; sCD40L alone,about 2 fold
same,fibrin deposition / fibrin clot formation,[3],no significant treatment-related effects
"sCollagen: soluble collagen (Soluble Calf Skin, Type I), a standard platelet activator",platelet aggregation / platelet coverage,[1],increased; also recorded: high number of larger aggregates
same,levels of TAT,[2],minimally increased; also recorded: elevated levels
same,fibrin deposition / fibrin signal intensity,[3],increased
N=C(N)NCCCC[C@@H]1NC(=O)CCSSC[C@@H](C(N)=O)NC(=O)[C@@H]2CCCN2C(=O)[C@H](Cc2c[nH]c3ccccc23)NC(=O)[C@H](CC(=O)O)NC(=O)CNC1=O [Eptifibatide] ([Mpa][hArg]GDWPC-NH2; disulfide 1-7),inhibitory effect on platelet aggregation and fibrin clot formation,"[1]; Eptifibatide 2 ug/ml, blood treated with sCollagen, n=4",comparatively modest
same,platelet aggregation,[1]; [6],significantly inhibited
same,platelet adhesion (image analysis of multiple experiments),"[1]; Eptifibatide 2 ug/ml, n=4",completely inhibited
same,"platelet coverage in stimulated, pro-thrombotic conditions","[1]; TNF-α or sCollagen, with Eptifibatide, FIG. 18E-1, n=4 donors",suppressed
same,fibrin clot formation,[3]; [6],significantly inhibited
same,fibrin signal (image analysis of multiple experiments),"[3]; Eptifibatide 2 ug/ml, samples treated with TNF-α, n=4",a significant amount of fibrin signal was still detectable
same,"fibrin deposition in stimulated, pro-thrombotic conditions","[3]; TNF-α or sCollagen, with Eptifibatide, FIG. 18E-2, n=4 donors",suppressed
same,thrombotic events recapitulated in the system,[4]; clinically relevant dosages of Eptifibatide,inhibited
"hu5C8: humanized monoclonal IgG1 antibody against CD40L, alternatively named anti-sCD40L or anti-CD154",platelet aggregate formation / platelet coverage,[1],no significant treatment-related effects
same,fibrin deposition / fibrin clot formation,[3],no significant treatment-related effects
same,incidence of thromboembolic events in clinical study,[5],2/18
